The target in assay [1] is adenosine A2B receptor (Homo sapiens (Human), UniProt P29275). Nature of the assay: Radioligand binding competition assay, adenosine A2B receptor (HEK-293-A2b cell membranes). As to conditions: 300 nM compound. The method, then: (§1) Binding of selected compounds to the adenosine A1, A2A, A2B, and A3 receptors was tested using a binding competition assay.
(§2) The general protocol for the radioligand binding competition assay was as follows. Competition binding was performed in duplicate in the wells of a 96 well plate (Master Block, Greiner, 786201) containing binding buffer (optimized for each receptor), membrane extracts (amount of protein/well optimized for each receptor), radiotracer (final concentration optimized for each receptor), and test compound. Nonspecific binding was determined by co-incubation with 200-fold excess of cold competitor. The samples were incubated in a final volume of 0.1 mL at 25° C. for 60 minutes and then filtered over filter plates. Filters were washed six times with 0.5 mL of ice-cold washing buffer (optimized for each receptor) and 50 μL of Microscint 20 (Packard) were added on each filter. The filter plates were sealed, incubated 15 min on an orbital shaker and scintillation counted with a TopCount for 30 sec/filter.
Similarly, the following reagents were used for the adenosine A2B radioligand binding competition assay: HEK-293-A2b cell membranes, 20 μg/well, preincubated 30 min at RT with […] Adenosine Deaminase; a binding buffer comprising HEPES 10 mM pH7.4, EDTA 1 mM, 0.5% BSA; a wash buffer comprising HEPES 10 mM pH7.4, EDTA 1 mM; a Unifilter GF/C—treated for 2 h with 0.5% PEI; and 10 nM ^3H-DPCPX as the tracer.
(§3) CHO-K1-A3 cell membranes, 1.5 μg/well; a binding buffer comprising HEPES 25 mM pH 7.4, MgCl2 5 mM, CaCl2 1 mM, 0.5% BSA; a wash buffer comprising HEPES 25 mM pH 7.4, MgCl2 5 mM, CaCl2 1 mM; a Unifilter GF/C—treated for 2 h with 0.5% BS; and 0.4 nM of ^125I-AB-MECA as the tracer. The results of the binding assay are shown in Table B1-1 and are shown as percent residual binding at a given concentration. Percent of residual binding means binding of a compound in the presence of competitor normalized to the amount of binding in the absence of competitor. […] For example, compound 1 strongly bound to A2A (30% residual binding at a concentration of 100 nM), A1 (−3% residual binding at 300 nM) and A2B, (−9% residual binding at 300 nM) but weakly bound to A3 (96% residual binding at 300 nM).

Assay [2] concerns the target T1, adenosine A2A receptor (Homo sapiens (Human), UniProt P29274). Nature of the assay: Radioligand binding competition assay, adenosine A2A receptor. The conditions noted are these: for A2A radioligand binding competition assay % residual binding @ 100 nM: 100 nM compound; for A2A radioligand binding competition assay % residual binding @ 300 nM: 300 nM compound; for A2A radioligand binding competition assay % residual binding @ 3000 nM / inhibition at 3 µM: 3000 nM compound; for inhibition at 3 µM: read-out: A2a binding % inh @ 3000 nM. The method, then: as §1, §2
For the adenosine A2A receptor radioligand binding assay, the following modifications were made to the general protocol. GF/C filters (Perkin Elmer, 6005174), presoaked in 0.01% Brij for 2 h at room temperature were used. Filters were washed six times with 0.5 mL of ice-cold washing buffer (50 mM Tris pH 7.4) and 50 μL of Microscint 20 (Packard) was added in each well. The plates were then incubated for 15 min on an orbital shaker and then counted with a TopCount™ for 1 min/well.
Another radioligand binding assay was used to evaluate the binding affinity for the adenosine A2A receptor assay was performed in duplicate in the wells of a 384 plate. Assay buffer contained DPBS 500 mM, MgCl2 0.1 mM, and 1% DMSO. Membrane-bead suspension was prepared by mixing 25.98 μL of human adenosine A2A membrane preparation (Perkin Elmer, RBHA2AM400UA) at 33.4 pg/mL, 28 μL of ADA at 20 pg/mL, and 932 μL of SPA beads at 3.33 mg/mL) and incubated the mixture for 20 min at room temperature. Mixed 20 μL of radiotracer (^3H-SCH 58261) at 15 nM to each well containing test articles at various concentrations and centrifuge the plate at 1000 rpm for 1 minute. Added 30 μL of the membrane-bead suspension to each well. Sealed the plates and incubated for 1 hr at room temperature with vigorous mixing on a plate mixer. Plates were read on Microbeta^2 (Perkin Elmer, 2450-0010).
as §3

Assay [3] addresses adenosine A3 receptor (Homo sapiens (Human), UniProt P0DMS8). As to the kind of experiment: Radioligand binding competition assay, adenosine A3 receptor (CHO-K1-A3 cell membranes). As to conditions: 300 nM compound. The method, then:
as §1, §2
For the adenosine A3 radioligand binding competition assay, the following reagents were used:
as §3

In assay [4] the target is adenosine A1 receptor (Homo sapiens (Human), UniProt P30542). Nature of the assay: Radioligand binding competition assay, adenosine A1 receptor (CHO-K1-A1 cell membranes). The conditions noted are these: 300 nM compound. The method, then:
as §1, §2
For the adenosine A1 radioligand binding competition assay, a similar procedure was used except that the following reagents were used: CHO-K1-A1 cell membranes; binding buffer comprising HEPES 25 mM pH 7.4, MgCl2 5 mM, CaCl2 1 mM, NaCl 100 mM, saponin 10 µg/mL; wash buffer comprising HEPES 25 mM pH 7.4, MgCl2 5 mM, CaCl2 1 mM, NaCl 100 mM; Unifilter GF/B—treated for 2 h with 0.5% PEI was the filter; and 1.6 nM of ^3H-DPCPX was the tracer.
as §3

The target of assay [5] is T1, adenosine A2A receptor. Nature of the assay: cAMP assay in HEK-293 cells expressing human recombinant adenosine A2A receptor. The assay is classed as cell-based. As to conditions: for inhibition at 0.1 µM: HEK293, 100 nM compound, read-out: A2a cAMP % inh @ 100 nM. The method, then: The functional activity of compounds was tested using one of the two assays to detect the present of cAMP. Activation of G-protein coupled receptors (such as A2A) results in activation of adenylcyclase which converts ATP into cAMP which is used as a downstream signaling molecule. Therefore, molecules which act as GPCR (or specifically A2A receptor) antagonists cause a decrease in intracellular cAMP concentration.
Both assays used HEK-293 cells expressing human recombinant adenosine A2A receptor were grown prior to the test in media without antibiotic. Assay 1: The cells were detached by gentle flushing with PBS-EDTA (5 mM EDTA), recovered by centrifugation and suspended in assay buffer (KRH: 5 mM KCl, 1.25 mM MgSO4, 124 mM NaCl, 25 mM HEPES, 13.3 mM Glucose, 1.25 mM KH2PO4, 1.45 mM CaCl2, 0.5 g/L BSA, supplemented with Rolipram).
12 μL of cells were mixed with 6 μL of the test compound at increasing concentrations and then incubated for 10 min. Thereafter 6 μL of the reference agonist was added at a final concentration corresponding to the historical EC80. The plates were then incubated for 30 min at room temperature. After addition of the lysis buffer and 1 hour incubation, cAMP concentrations were estimated, according to the manufacturer specification, with the HTRF® kit.
Assay 2: 100 nL of test articles at 100× of final concentration were transferred to assay plate by Echo. Cells were washed twice with 5 mL of PBS […]. After aspirating the PBS and adding 1.5 mL versine, cells were incubated at 37° C. for 2-5 min. After centrifugation, 4 mL of medium was added and adjusted cell density to 5,000 cells/well with stimulation buffer. 10 μL of cells were aliquoted to the assay plate, centrifuged at 1000 rpm for 1 minute, and incubated for 60 minutes at room temperature. 5 μL 4× Eu-cAMP tracer solution and 5 μL 4× Ulight™-anti-cAMP solution were added to assay plate, followed by centrifugation and 60-minute incubation at room temperature. Plates were read on EnVision.
On the technique in general: Changes in cAMP serve as a functional read-out for many G protein-coupled receptors.

Molecules are shown by their SMILES.

T1 sequence (P29274 whole entry): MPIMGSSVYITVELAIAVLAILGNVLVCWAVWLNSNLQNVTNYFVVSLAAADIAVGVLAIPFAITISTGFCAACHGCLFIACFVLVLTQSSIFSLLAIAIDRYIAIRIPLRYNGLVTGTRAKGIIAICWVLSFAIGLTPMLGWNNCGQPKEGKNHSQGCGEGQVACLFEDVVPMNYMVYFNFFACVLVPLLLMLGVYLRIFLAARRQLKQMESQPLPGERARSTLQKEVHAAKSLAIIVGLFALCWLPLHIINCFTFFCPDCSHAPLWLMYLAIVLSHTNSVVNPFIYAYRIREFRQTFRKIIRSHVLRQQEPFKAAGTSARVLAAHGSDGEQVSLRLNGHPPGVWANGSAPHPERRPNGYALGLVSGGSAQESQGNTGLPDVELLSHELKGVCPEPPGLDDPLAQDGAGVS
adenosine A3 receptor, sequence (P0DMS8 whole entry): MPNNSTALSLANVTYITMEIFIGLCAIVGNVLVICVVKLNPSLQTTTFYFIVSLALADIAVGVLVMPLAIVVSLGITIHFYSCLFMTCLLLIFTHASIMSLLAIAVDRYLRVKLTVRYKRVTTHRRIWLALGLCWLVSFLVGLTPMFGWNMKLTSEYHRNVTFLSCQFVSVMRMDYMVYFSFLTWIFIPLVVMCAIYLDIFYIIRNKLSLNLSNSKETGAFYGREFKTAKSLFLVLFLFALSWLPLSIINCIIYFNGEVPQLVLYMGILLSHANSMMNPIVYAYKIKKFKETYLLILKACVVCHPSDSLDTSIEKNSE
adenosine A2B receptor, sequence (P29275 whole entry): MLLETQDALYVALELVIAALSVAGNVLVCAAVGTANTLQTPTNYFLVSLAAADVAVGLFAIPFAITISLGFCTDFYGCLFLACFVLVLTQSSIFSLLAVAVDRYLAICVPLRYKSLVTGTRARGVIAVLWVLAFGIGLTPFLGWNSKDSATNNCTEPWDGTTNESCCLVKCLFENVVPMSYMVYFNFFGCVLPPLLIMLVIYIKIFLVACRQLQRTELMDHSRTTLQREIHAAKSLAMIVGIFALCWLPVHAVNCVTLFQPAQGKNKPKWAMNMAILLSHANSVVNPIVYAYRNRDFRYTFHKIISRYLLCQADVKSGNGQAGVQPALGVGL
adenosine A1 receptor, sequence (P30542 whole entry): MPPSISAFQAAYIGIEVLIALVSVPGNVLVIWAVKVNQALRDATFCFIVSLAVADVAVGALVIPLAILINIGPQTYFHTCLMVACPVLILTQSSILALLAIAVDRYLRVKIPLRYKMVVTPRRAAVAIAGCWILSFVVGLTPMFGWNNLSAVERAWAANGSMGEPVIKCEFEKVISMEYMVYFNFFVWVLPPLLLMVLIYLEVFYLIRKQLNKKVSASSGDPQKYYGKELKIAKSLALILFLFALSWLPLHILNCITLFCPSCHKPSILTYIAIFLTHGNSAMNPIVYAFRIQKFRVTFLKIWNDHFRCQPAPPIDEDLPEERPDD

Broadly, the IC50 is the concentration at which inhibition is half-maximal. `O=c1ccc2cc(-c3ccc(O)c(Cl)c3)c(-c3ccccc3)nc2[nH]1` [1.1, 6-(3-chloro-4-hydroxy-phenyl)-7-phenyl-1H-1,8-naphthyridin-2-one]: the “Radioligand binding competition assay % residual binding @ 300 nM (A2b)” value in assay [1] came to 17%. Besides, in assay [2], the “A2A radioligand binding competition assay % residual binding @ 100 nM” value is given as 83% and the “A2A radioligand binding competition assay % residual binding @ 300 nM” value is listed as 54%. Further, the “Radioligand binding competition assay % residual binding @ 300 nM (A3)” value in assay [3] is on record as 95%. In addition, in assay [4], the “Radioligand binding competition assay % residual binding @ 300 nM (A1)” value is listed as 1.6%. In addition, in assay [5] (first cAMP table), the IC50 stood at 61 nM.
In the case of `O=c1cc[nH]c2nc(-c3ccccc3)c(-c3ccc(O)c(Cl)c3)cc12` [1.2, 6-(3-chloro-4-hydroxy-phenyl)-7-phenyl-1H-1,8-naphthyridin-4-one], the “Radioligand binding competition assay % residual binding @ 300 nM (A2b)” value in assay [1] is recorded as 0%. Further, in assay [2], the “A2A radioligand binding competition assay % residual binding @ 100 nM” value amounted to 77% and the “A2A radioligand binding competition assay % residual binding @ 300 nM” value came out at 60%. The “Radioligand binding competition assay % residual binding @ 300 nM (A3)” value in assay [3] is 83%. Moreover, in assay [4], the “Radioligand binding competition assay % residual binding @ 300 nM (A1)” value was determined as 0%. Further, in assay [5] (first cAMP table), the IC50 came out at 22 nM.
Regarding `O=c1ccc2cc(-c3ccc4[nH]cnc4c3)c(-c3ccccc3)nc2[nH]1` [Compound No. 1.6, 6-(1H-benzo[d]imidazol-5-yl)-7-phenyl-1,8-naphthyridin-2(1H)-one], the “A2A radioligand binding competition assay % residual binding @ 3000 nM” value in assay [2] is given as 57/ND/ND/ND %. The inhibition at 0.1 µM in assay [5] came out at 43%.
Taken in the same sequence, the figures for `O=c1cc[nH]c2nc(-c3ccccc3)c(-c3ccc4ccccc4c3)cc12` [Compound No. 1.16, 6-(naphthalen-2-yl)-7-phenyl-1,8-naphthyridin-4(1H)-one] were 76/ND/ND/ND % and 23%.
Taken in the same sequence, the figures for `O=c1ccc2cc(-c3cc(Cl)c4[nH]cnc4c3)c(-c3ccccc3)nc2[nH]1` [Compound No. 1.19, 6-(7-chloro-1H-benzo[d]imidazol-5-yl)-7-phenyl-1,8-naphthyridin-2(1H)-one] were 25/ND/ND/ND % and 74%.
Taken in the same sequence, the figures for `O=c1cc[nH]c2nc(-c3ccccc3)c(-c3cnc4ncccc4c3)cc12` [Compound No. 1.11, 2-phenyl-[3,3′-bi(1,8-naphthyridin)]-5(8H)-one] were 51/ND/ND/ND % and 49%.
Consider `O=c1cc[nH]c2nc(-c3ccccc3)c(-c3cc(Cl)c4ncccc4c3)cc12` [Compound No. 1.13, 6-(8-chloroquinolin-6-yl)-7-phenyl-1,8-naphthyridin-4(1H)-one], for which the “A2A radioligand binding competition assay % residual binding @ 3000 nM” value in assay [2] was 29/ND/ND/ND %. Moreover, in assay [5] (first cAMP table), the 50% inhibitory concentration (IC50) turned out to be 47.7 nM.
For `Cc1cc(-c2cc3c(=O)cc[nH]c3nc2-c2ccccc2)cc2cccnc12` [Compound No. 1.23, 6-(8-methylquinolin-6-yl)-7-phenyl-1,8-naphthyridin-4(1H)-one], in assay [2], the “A2A radioligand binding competition assay % residual binding @ 3000 nM” value is 22/ND/ND/ND %. Moreover, the inhibition at 0.1 µM in assay [5] was found to be 77%.
For `O=c1cc[nH]c2nc(-c3ccccc3)c(-c3cc(Cl)c4[nH]cnc4c3)cc12` [Compound No. 1.17, 6-(7-chloro-1H-benzo[d]imidazol-5-yl)-7-phenyl-1,8-naphthyridin-4(1H)-one], in assay [2], the “A2A radioligand binding competition assay % residual binding @ 3000 nM” value is listed as 14/ND/ND/ND %. Further, in assay [5], the inhibition at 0.1 µM was determined as 85%.
For `Cn1ccc(=O)c2cc(-c3ccc4ncccc4c3)c(-c3ccccc3)nc21` [Compound No. 1.8, 1-methyl-7-phenyl-6-(quinolin-6-yl)-1,8-naphthyridin-4(1H)-one], in that order: 106/ND/ND/ND % and 0%.
For the molecule `O=c1ccc2cc(-c3ccc4nccnc4c3)c(-c3ccccc3)nc2[nH]1` [Compound No. 1.10, 7-phenyl-6-(quinoxalin-6-yl)-1,8-naphthyridin-2(1H)-one], the “A2A radioligand binding competition assay % residual binding @ 3000 nM” value in assay [2] is listed as 60/ND/ND/ND %. For the same molecule, the inhibition at 0.1 µM in assay [5] was 40%.
In the case of `O=c1cc[nH]c2nc(-n3cccn3)c(-c3ccc4ncccc4c3)cc12` [Compound No. 1.100, 7-(1H-pyrazol-1-yl)-6-(quinolin-6-yl)-1,8-naphthyridin-4(1H)-one], the inhibition at 3 µM in assay [2] was determined as 78%. The IC50 in assay [5] (second cAMP table) worked out at 3220 nM.
For `Cc1ccc(-c2nc3[nH]ccc(=O)c3cc2-c2ccc3ncsc3c2)o1` [Compound No. 1.98, 6-(benzo[d]thiazol-6-yl)-7-(5-methylfuran-2-yl)-1,8-naphthyridin-4(1H)-one], in that order: 85% and 17.2 nM.
`O=c1cc[nH]c2nc(-c3ccccc3)c(-c3ccc4cnccc4c3)cc12` [Compound No. 1.9, 6-(isoquinolin-6-yl)-7-phenyl-1,8-naphthyridin-4(1H)-one]: the “A2A radioligand binding competition assay % residual binding @ 3000 nM” value in assay [2] was 70/ND/ND/ND %. Further, the inhibition at 0.1 µM in assay [5] was found to be 30%.

The record behind these values is patent publication US10793561B2, “1,8-naphthyridinone compounds and uses thereof” (NUVATION BIO INC., priority 2017, dated 2020).
